Test results taken from patent US20040197335A1, “Non-myeloablative tolerogenic treatment with tyrphostins” (priority 2003, published 2004).
Like-named read-outs stand apart in the source and are kept apart here.

Legend:
Format in all cases: cell-based
[1] = tested on: Human PBMC incubated with MHC-mismatched PBMC; assay: One-way mixed lymphocyte reaction (primary MLR), [3H]TdR uptake; details: for IC50: Table 5, some values marked (mean), read-out: IC 50% (inhibition of Primary MLR); for cpm ± SD: no tyrphostin 30,520 cpm; for cpm: no tyrphostin 10,734 cpm; for % response (alloreactive relative response, cpm with/without tyrphostin x100): FIG. 2, response without tyrphostin = 100%
Description: Cell sources: Human peripheral blood mononuclear cells (PBMC) were obtained from healthy human donors after separation on Ficoll-Paque density gradient essentially as described in Boyum, A. Scand. J Lab. Invest. […] Reagents:
One-way mixed lymphocyte reaction (MLR assay): Responding cells derived from donor A (5×10^4) were cultured in round-bottom microwell plates with an equal number (5×10^4) of irradiated (6000 cGy) donor B PBMC with and without tyrphostins. […] During the last 18 hours of incubation, cultures were pulsed with 2 μCi of [^3H] TdR.
(§1) Harvesting and radioactivity determination: Harvesting was carried out by a multiple-sample cell harvester and radioactivity, expressed in counts per minutes (cpm), was determined in a liquid scintillation β-counter.
Human PBMC were incubated either with autologous or with MHC-mismatched PBMC in a one-way MLR assay, with and without various concentrations of tyrphostins, as is described hereinabove.
In this case, the alloreactive response without the tyrphostins was considered as 100% response. Percentage of response was calculated according to the following formula: b/a×100; where a=cpm in cultures without tyrphostin, b=cpm in cultures with tyrphostin.

[2] = tested on: Human PBMC stimulated with phytohemagglutinin (PHA); assay: Primary mitogenic response assay (PHA), [3H]TdR uptake; details: Table 6, tyrphostin 20 μM; for inhibition at 20 µM: Homo sapiens, PBMC, 96 h; for cpm ± SD: PHA without tyrphostin 14,959±644, medium 155±37
Description: Mitogens: Phytohemagglutinin (PHA) and concanavalin A (Con-A) were dissolved in saline and diluted to their final concentration in culture medium. Anti-CD3 (OK3 stock solution 1 μg/ml) was diluted to 0.2 μg/ml final concentration in culture medium.
Responding PBMC cells (10^5) derived from donor A were cultured in flat-bottom microwell plates with and without tyrphostins, and with phytohemagglutinin (PHA) 1 μg/ml, or concanavalin A 18 μg/ml. […] During the last 18 hours of incubation, cultures were pulsed with 1 μCi of [^3H] TdR.
as §1

[3] = tested on: donor A anti-donor B-primed human PBMC vs donor B PBMC; assay: Secondary MLR of alloantigen-primed PBMC against priming donor B; details: then removed, priming without tyrphostin = 100%
Description: (§2) PBMC from donor A (10×10^6) were stimulated with equal number of irradiated (6000 cGy) donor B PBMC, with and without tyrphostins, in a total volume of 20 ml culture medium supplemented with 10% heat inactivated human AB^+ serum (mixed lymphocyte culture, MLC). Cultures were placed vertically in 25 cm tissue culture flasks in a 5% CO2, humidified incubator at 37° C. After 10 days, cells were washed twice to remove the tyrphostin, and tested for their ability to respond in the MLR and the primary mitogenic response assay described hereinabove.
(§3) The alloreactivity of donor A anti-donor B-primed cells (5×10^4) was tested in a 6-day one-way primary MLR assay against third party unrelated donor C PBMC (10^5), or against donor A cells (background control). Cultures were placed in round-bottom microwell plates. On day 5, cultures were pulsed with 2 μCi [^3H] TdR/well for 16-18 hours and then harvested. […] After 48 hours at 37° C. in a 5% CO2 humidified incubator, cultures were pulsed with 2 μCi [^3H] TdR for another 16-18 hours and then harvested.
as §1
(§4) […] After 10 days the tyrphostin was removed and the primed cells were tested for their ability to respond in a secondary MLR assay against the priming (donor B) alloantigens, in a primary MLR assay against third party unrelated alloantigens (donor C), and to non-specific stimulation in a mitogenic assay. […] Percentage of response was calculated according to the formula described above.

[4] = tested on: donor A anti-donor B-primed human PBMC vs third party unrelated donor C PBMC; assay: Primary MLR of alloantigen-primed PBMC against third party unrelated donor C; details: then removed, priming without tyrphostin = 100%
Description: as §2, §3, §1, §4

[5] = tested on: donor A anti-donor B-primed human PBMC stimulated with PHA; assay: Mitogenic response (PHA) of alloantigen-primed PBMC; details: then removed, priming without tyrphostin = 100%
Description: as §2
Cultures were incubated for 48 hours in a total volume of 0.2 ml culture medium supplemented with 10% heat-inactivated human AB^+ serum at 37° C. in a 5% CO2 humidified incubator, pulsed for 16-18 hours with 1 μCi [^3H]TdR/well, and then harvested.
as §1, §4

[6] = Homo sapiens, PBMC, 144 h, Table 3, primary MLR, tyrphostin 25 μM
[7] = Homo sapiens, PBMC, 144 h, Table 3, primary MLR, tyrphostin 50 μM
[8] = Table 3, primary MLR, tyrphostin 25 μM
[9] = Table 3, primary MLR, tyrphostin 50 μM
[10] = Table 2, primary MLR, tyrphostin 5 μM
[11] = Table 2, primary MLR, tyrphostin 10 μM
[12] = primed 10 days with tyrphostin 5 μM
[13] = primed 10 days with tyrphostin 10 μM
[14] = primed 10 days with tyrphostin 20 μM
[15] = Homo sapiens, PBMC, 144 h, Table 2, primary MLR, tyrphostin 10 μM
[16] = Homo sapiens, PBMC, 144 h, Table 2, primary MLR, tyrphostin 50 μM
[17] = Table 2, primary MLR, tyrphostin 50 μM
[18] = primed 10 days with tyrphostin 30 μM
[19] = primed 10 days with tyrphostin 40 μM

`COc1cc2ncnc(Nc3ccc(O)cc3)c2cc1OC` [Tyr 9, 4-(6,7-dimethoxyquinazoline-4-yl-amino)-phenol] was tested, and the inhibition at 25 µM [1, 6] was 95%, the inhibition at 50 µM [1, 7] was 99% and the IC50 ([1]; Homo sapiens, PBMC) was 26 µM. The “cpm ± SD” value [1, 8] was 1,367 cpm, the “cpm ± SD” value [1, 9] was 371 cpm and the inhibition at 20 µM ([2]; mitogenic response) was 70%. The “cpm ± SD” value [2] was 4,582 ± 617 cpm.

With `N#CC(=Cc1ccc(O)c(O)c1)C(=S)NCc1ccccc1` [Tyr 26, N-benzyl-2-cyano-3-(3,4-dihydroxyphenyl)-thioacrylamide] the inhibition at 20 µM ([2]; mitogenic response) was 70% and the “cpm ± SD” value [2] was 4,295 ± 221 cpm.

`Cc1ccc(-c2nn(C(C)(C)C)c3ncnc(N)c23)cc1` [Tyr 3, 4-amino-1-t-butyl-3-(p-toluyl)pyrazolo[3,4-d]pyrimidine] was tested, and the cpm [1, 10] was 3,130 cpm, the cpm [1, 11] was 145 cpm and the inhibition at 20 µM ([2]; mitogenic response) was 98%. The “cpm ± SD” value [2] was 300 ± 24 cpm, the “% Response to primary stimulator” value [3, 12] was 65% and the “% Response to primary stimulator” value [3, 13] was 24 ± 10%. The “% Response to primary stimulator” value [3, 14] was 24 ± 18%, the “% Response to unrelated stimulator” value [4, 12] was 55% and the “% Response to unrelated stimulator” value [4, 13] was 206 ± 99%. The “% Response to unrelated stimulator” value [4, 14] was 57 ± 44^ %, the “% Response to PHA” value [5, 12] was 26% and the “% Response to PHA” value [5, 13] was 110 ± 35%. For the same compound, the “% Response to PHA” value [5, 14] was 30 ± 28^ %.

`CC(C)(C)n1nc(-c2cccs2)c2c(N)ncnc21` [Tyr 15, 4-amino-1-t-butyl-3-(2-thiophene)pyrazolo[3,4-d]pyrimidine] showed an IC50 [1] of 7 µM.

With `N#CC(=Cc1c[nH]c2ccccc12)c1[nH]nc(N)c1C#N` [Tyr 24, 3-amino-5-[1-cyano-2-(1H-indol-3-yl)vinyl]-1H-pyrazole-4-carbonitrile] the inhibition at 20 µM ([2]; mitogenic response) was 96% and the “cpm ± SD” value [2] was 533 ± 45 cpm.

Compound `N#CC(=Cc1cc(O)c(O)c(CSCCc2ccccc2)c1)C(=O)NCCCCc1ccccc1` [Tyr 6, 2-cyano-3-(3,4-dihydroxy-5-phenethylsulfanylmethyl-phenyl)-N-(4-phenylbutyl)-acrylamide] has an inhibition at 10 µM [1, 15] of 59%, an inhibition at 50 µM [1, 16] of 99% and an IC50 ([1]; Homo sapiens, PBMC) of 23 µM. The cpm [1, 11] was 4,431 cpm, the cpm [1, 17] was 168 cpm and the inhibition at 20 µM ([2]; mitogenic response) was 70%. The “cpm ± SD” value [2] was 4,662 ± 104 cpm, the “% Response to primary stimulator” value [3, 13] was 32% and the “% Response to primary stimulator” value [3, 14] was 32 ± 0%. The “% Response to primary stimulator” value [3, 18] was 46%, the “% Response to unrelated stimulator” value [4, 13] was 250% and the “% Response to unrelated stimulator” value [4, 14] was 220 ± 93%. For the same compound, the “% Response to unrelated stimulator” value [4, 18] was 185%, the “% Response to PHA” value [5, 13] was 152% and the “% Response to PHA” value [5, 14] was 62 ± 42^ %. The “% Response to PHA” value [5, 18] was 20%.

For `N#CC(=Cc1cc(O)c(O)c(CSCCCc2ccccc2)c1)C(=O)NCc1ccccc1` [Tyr 2, N-benzyl-2-cyano-3-[3,4-dihydroxy-5-(3-phenylpropylsulfanylmethyl)-phenyl]-acrylamide], the “% response (alloreactive relative response, cpm with/without tyrphostin x100)” value ([1]; primary MLR, tyrphostin 10 μM) was 73%, the “% response (alloreactive relative response, cpm with/without tyrphostin x100)” value ([1]; primary MLR, tyrphostin 50 μM) was 0% and the inhibition at 20 µM ([1]; Homo sapiens, PBMC, 144 h, Table 2, primary MLR, tyrphostin 20 μM) was 73%. For the same compound, the inhibition at 40 µM ([1]; Homo sapiens, PBMC, 144 h, Table 2, primary MLR, tyrphostin 40 μM) was 95%, the IC50 ([1]; Homo sapiens, PBMC) was 22 µM and the cpm ([1]; Table 2, primary MLR, tyrphostin 20 μM) was 2,863 cpm. The cpm ([1]; Table 2, primary MLR, tyrphostin 40 μM) was 490 cpm, the “% Response to primary stimulator” value [3, 14] was 280% and the “% Response to primary stimulator” value [3, 19] was 15%. The “% Response to unrelated stimulator” value [4, 14] was 257%, the “% Response to unrelated stimulator” value [4, 19] was 138% and the “% Response to PHA” value [5, 14] was 900%. The “% Response to PHA” value [5, 19] was 254%.

With `N#CC(=Cc1cc(O)c(O)c(I)c1)C(=O)NCCCc1ccccc1` [Tyr 32, 2-cyano-3-(3,4-dihydroxy-5-iodophenyl)-N-(4-phenylpropyl)-acrylamide] the “% Inhibition” value ([2]; mitogenic response) was 58% and the “cpm ± SD” value [2] was 6,303 ± 1205 cpm.

`N#CC(C#N)=Cc1ccc([N+](=O)[O-])c(O)c1` [Tyr 7, 2-(3-hydroxy-4-nitro-benzylidene)malononitrile] was tested, and the inhibition at 50 µM [1, 16] was 50%, the inhibition at 100 µM ([1]; Homo sapiens, PBMC, 144 h, Table 2, primary MLR, tyrphostin 100 μM) was 95% and the IC50 ([1]; Homo sapiens, PBMC) was 36 µM. The cpm [1, 17] was 5,348 cpm and the cpm ([1]; Table 2, primary MLR, tyrphostin 100 μM) was 512 cpm.

`COc1ccc(-c2nn(C(C)(C)C)c3ncnc(N)c23)cc1OC` [Tyr 19, 4-amino-1-t-butyl-3-(3,4-dimethoxyphenyl)-pyrazolo[3,4-d]pyrimidine] gave an inhibition at 10 µM ([1]; Homo sapiens, PBMC, 144 h, Table 4, primary MLR, tyrphostin 10 μM) of 63%, an inhibition at 20 µM ([1]; Homo sapiens, PBMC, 144 h, Table 4, primary MLR, tyrphostin 20 μM) of 80% and an IC50 ([1]; Homo sapiens, PBMC) of 3 µM. The inhibition at 20 µM ([2]; mitogenic response) was 96% and the “cpm ± SD” value [2] was 553 ± 59 cpm.

`CC(C)(C)c1cc(C=C(C#N)C(N)=S)cc(C(C)(C)C)c1O` [Tyr 23, 2-cyano-3-(3,5-di-t-butyl-4-hydroxyphenyl)-thioacrylamide] was tested, and the inhibition at 20 µM ([2]; mitogenic response) was 68% and the “cpm ± SD” value [2] was 4,831 ± 1026 cpm.

For `N#CC(=Cc1ccc(O)c(O)c1)C(=O)NCCCCc1ccccc1` [Tyr 5, 2-cyano-3-(3,4-dihydroxyphenyl)-N-(4-phenylbutyl)-acrylamide], the “% response (alloreactive relative response, cpm with/without tyrphostin x100)” value ([1]; primary MLR, tyrphostin 10 μM) was 32%, the “% response (alloreactive relative response, cpm with/without tyrphostin x100)” value ([1]; primary MLR, tyrphostin 50 μM) was 13% and the inhibition at 10 µM [1, 15] was 40%. For the same compound, the inhibition at 50 µM [1, 16] was 70%, the IC50 ([1]; Homo sapiens, PBMC) was 34 µM and the cpm [1, 11] was 6,413 cpm. For the same compound, the cpm [1, 17] was 3,156 cpm.

With “3-(3,5-dimethyl-H-pyrrol-2-yl-methylene)-2-oxo-2,3-dihydro-1H-indole-5-sulfonic acid dimethylamide [Tyr 16]” the “% Inhibition” value ([1]; Table 4, primary MLR, tyrphostin 1 μM) was 62% and the IC50 [1] was 4 µM.

In the case of `CC(C)(C)n1nc(-c2ccc(Cl)cc2)c2c(N)ncnc21` [Tyr 4, 4-amino-1-t-butyl-3-(p-chlorophenyl)pyrazolo[3,4-d]pyrimidine], the cpm [1, 10] is reported as 3,316 cpm, the cpm [1, 11] is reported as 580 cpm and the inhibition at 20 µM ([2]; mitogenic response) is reported as 98%. For the same compound, the “cpm ± SD” value [2] was 230 ± 115 cpm, the “% Response to primary stimulator” value [3, 12] was 132% and the “% Response to primary stimulator” value [3, 13] was 13 ± 4.5%. The “% Response to primary stimulator” value [3, 14] was 6.5 ± 0.5%, the “% Response to unrelated stimulator” value [4, 12] was 145% and the “% Response to unrelated stimulator” value [4, 13] was 288 ± 122^ %. For the same compound, the “% Response to unrelated stimulator” value [4, 14] was 204 ± 18%, the “% Response to PHA” value [5, 12] was 29% and the “% Response to PHA” value [5, 13] was 120 ± 40%. The “% Response to PHA” value [5, 14] was 40 ± 32^ %.

For `COc1cc2ncnc(Nc3ccc(C(N)=O)cc3)c2cc1OC` [Tyr 8, 4-(6,7-dimethoxyquinazoline-4-yl-amino)-benzamide], the inhibition at 25 µM [1, 6] was 49%, the inhibition at 50 µM [1, 7] was 63% and the IC50 ([1]; Homo sapiens, PBMC) was 43 µM. For the same compound, the “cpm ± SD” value [1, 8] was 12,452 cpm and the “cpm ± SD” value [1, 9] was 11,293 cpm.
